Patent publication US11325889B2, “Substituted 3-((3-aminophenyl)amino)piperidine-2,6-dione compounds, compositions thereof, and methods of treatment therewith” (Celgene Corporation, priority 2018, dated 2022)

Biological target: T1, AR protein in VCaP cells (Homo sapiens, UniProt P10275)
T1 construct: endogenous in cells; host or cells: VCaP cells
T1 sequence (P10275 1-920): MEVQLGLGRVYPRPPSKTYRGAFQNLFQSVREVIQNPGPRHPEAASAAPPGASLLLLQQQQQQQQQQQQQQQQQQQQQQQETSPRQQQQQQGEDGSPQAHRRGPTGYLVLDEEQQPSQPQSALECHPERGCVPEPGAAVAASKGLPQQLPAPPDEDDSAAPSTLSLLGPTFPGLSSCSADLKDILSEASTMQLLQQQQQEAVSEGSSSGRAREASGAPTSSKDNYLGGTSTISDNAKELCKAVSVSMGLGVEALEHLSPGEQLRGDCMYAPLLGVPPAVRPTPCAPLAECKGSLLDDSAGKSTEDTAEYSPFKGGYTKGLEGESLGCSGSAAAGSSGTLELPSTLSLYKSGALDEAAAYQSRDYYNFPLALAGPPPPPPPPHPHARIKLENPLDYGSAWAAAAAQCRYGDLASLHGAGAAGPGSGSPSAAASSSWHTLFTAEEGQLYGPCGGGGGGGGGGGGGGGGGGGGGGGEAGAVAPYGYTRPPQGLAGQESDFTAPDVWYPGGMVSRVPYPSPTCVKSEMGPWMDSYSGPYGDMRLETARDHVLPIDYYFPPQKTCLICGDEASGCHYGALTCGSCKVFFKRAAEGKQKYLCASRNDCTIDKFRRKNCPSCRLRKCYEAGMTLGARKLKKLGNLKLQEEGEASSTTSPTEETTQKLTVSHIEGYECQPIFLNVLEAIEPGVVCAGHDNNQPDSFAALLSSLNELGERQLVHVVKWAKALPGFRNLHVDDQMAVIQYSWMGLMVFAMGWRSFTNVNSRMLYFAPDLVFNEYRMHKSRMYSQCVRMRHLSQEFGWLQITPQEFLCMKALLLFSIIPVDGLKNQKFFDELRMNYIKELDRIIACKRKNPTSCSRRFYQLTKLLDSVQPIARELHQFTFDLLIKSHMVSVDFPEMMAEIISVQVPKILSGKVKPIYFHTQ
Assay: VCAP AR Degradation Assay (AR ELISA, 24 h)
Assay type: cell-based
Settings: for Y (lowest measured AR level normalized to DMSO control): AR degradation efficiency; for DC50: concentration of compound when AR level = 50% of DMSO control, read-out: DC50
In short: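 VCaP cells in DMEM with 8% FBS exposed for 24 h at 37° C to a 10-point, 1:3 series (final top concentration […]; 0.1% DMSO control). Lysate AR measured by sandwich ELISA and normalized to DMSO as percent of control. DC50, EC50 and lowest AR level (Y) from four-parameter logistic fit.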

Row | Y (lowest measured AR level normalized to DMSO control) | DC50 [µM] | SMILES
1 | ** (25%<Y<=35%) | < 0.1 | CCc1cc(N2C(=S)N(c3cnc(C#N)c(C(F)(F)F)c3)C(=O)C2(C)C)ccc1OCCC1CCN(CC(=O)Nc2cc(C#N)cc(NC3CCC(=O)NC3=O)c2)CC1 (stereo not drawn) [Cmpd 39, N-(3-cyano-5-(2,6-dioxopiperidin-3-ylamino)phenyl)-2-(4-(2-(4-(3-(6-cyano-5-(trifluoromethyl)pyridin-3-yl)-5,5-dimethyl-4-oxo-2-thioxoimidazolidin-1-yl)-2-ethylphenoxy)ethyl)piperidin-1-yl)acetamide]
2 | * (0<Y<=25%) | < 0.1 | CCc1cc(N2C(=S)N(c3cnc(C#N)c(C(F)(F)F)c3)C(=O)C2(C)C)ccc1OCCC1CCN([C@@H](C)C(=O)Nc2cccc(N[C@@H]3CCC(=O)NC3=O)c2)CC1 [Cmpd 44, (S)-2-(4-(2-(4-(3-(6-cyano-5-(trifluoromethyl)pyridin-3-yl)-5,5-dimethyl-4-oxo-2-thioxoimidazolidin-1-yl)-2-ethylphenoxy)ethyl)piperidin-1-yl)-N-(3-((R)-2,6-dioxopiperidin-3-ylamino)phenyl)propanamide]
3 | * (0<Y<=25%) | < 0.1 | CCc1cc(N2C(=S)N(c3cnc(C#N)c(C(F)(F)F)c3)C(=O)C2(C)C)ccc1OCCC1CCN([C@H](C)C(=O)Nc2cccc(N[C@@H]3CCC(=O)NC3=O)c2)CC1 [Cmpd 45, (R)-2-(4-(2-(4-(3-(6-cyano-5-(trifluoromethyl)pyridin-3-yl)-5,5-dimethyl-4-oxo-2-thioxoimidazolidin-1-yl)-2-ethylphenoxy)ethyl)piperidin-1-yl)-N-(3-((R)-2,6-dioxopiperidin-3-ylamino)phenyl)propanamide]
4 | * (0<Y<=25%) | < 0.1 | CCc1cc(N2C(=S)N(c3cnc(C#N)c(C(F)(F)F)c3)C(=O)C2(C)C)ccc1OCCC1CCN([C@@H](C)C(=O)Nc2cccc(N[C@H]3CCC(=O)NC3=O)c2)CC1 [Cmpd 46, (S)-2-(4-(2-(4-(3-(6-cyano-5-(trifluoromethyl)pyridin-3-yl)-5,5-dimethyl-4-oxo-2-thioxoimidazolidin-1-yl)-2-ethylphenoxy)ethyl)piperidin-1-yl)-N-(3-((S)-2,6-dioxopiperidin-3-ylamino)phenyl)propanamide]
5 | * (0<Y<=25%) | < 0.1 | CCc1cc(N2C(=S)N(c3cnc(C#N)c(C(F)(F)F)c3)C(=O)C2(C)C)ccc1OCCC1CCN([C@H](C)C(=O)Nc2cccc(N[C@H]3CCC(=O)NC3=O)c2)CC1 [Cmpd 47, (R)-2-(4-(2-(4-(3-(6-cyano-5-(trifluoromethyl)pyridin-3-yl)-5,5-dimethyl-4-oxo-2-thioxoimidazolidin-1-yl)-2-ethylphenoxy)ethyl)piperidin-1-yl)-N-(3-((S)-2,6-dioxopiperidin-3-ylamino)phenyl)propanamide]
6 | * (0<Y<=25%) | < 0.1 | CCc1cc(N2C(=S)N(c3cnc(C#N)c(C(F)(F)F)c3)C(=O)C2(C)C)ccc1OC1CCN(CC(=O)Nc2cc(Cl)cc(NC3CCC(=O)NC3=O)c2)CC1 (stereo not drawn) [Cmpd 51, N-(3-chloro-5-(2,6-dioxopiperidin-3-ylamino)phenyl)-2-(4-(4-(3-(6-cyano-5-(trifluoromethyl)pyridin-3-yl)-5,5-dimethyl-4-oxo-2-thioxoimidazolidin-1-yl)-2-ethylphenoxy)piperidin-1-yl)acetamide]
7 | *** (35%<Y<50%) | 0.1 to 0.5 | CCc1cc(N2C(=S)N(c3cnc(C#N)c(C(F)(F)F)c3)C(=O)C2(C)C)ccc1OC1CCN(CC(=O)Nc2cc(NC3CCC(=O)NC3=O)ccc2F)CC1 (stereo not drawn) [Cmpd 52, 2-(4-(4-(3-(6-cyano-5-(trifluoromethyl)pyridin-3-yl)-5,5-dimethyl-4-oxo-2-thioxoimidazolidin-1-yl)-2-ethylphenoxy)piperidin-1-yl)-N-(5-(2,6-dioxopiperidin-3-ylamino)-2-fluorophenyl)acetamide]
8 | ** (25%<Y<=35%) | < 0.1 | CCc1cc(N2C(=S)N(c3cnc(C#N)c(C(F)(F)F)c3)C(=O)C2(C)C)ccc1OC1CCN(CC(=O)Nc2cccc(NC3CCC(=O)NC3=O)c2)CC1 (stereo not drawn) [Cmpd 53, 2-(4-(4-(3-(6-cyano-5-(trifluoromethyl)pyridin-3-yl)-5,5-dimethyl-4-oxo-2-thioxoimidazolidin-1-yl)-2-ethylphenoxy)piperidin-1-yl)-N-(3-(2,6-dioxopiperidin-3-ylamino)phenyl)acetamide]

Row | SMILES | Y (lowest measured AR level normalized to DMSO control) | DC50 [µM]
9 | CCc1cc(N2C(=S)N(c3ccc(C#N)c(C(F)(F)F)c3)C(=O)C2(C)C)ccc1OCCC1CCN(CC(=O)Nc2cc(C#N)cc(NC3CCC(=O)NC3=O)c2)CC1 (stereo not drawn) [Cmpd 40, 2-(4-(2-(4-(3-(4-cyano-3-(trifluoromethyl)phenyl)-5,5-dimethyl-4-oxo-2-thioxoimidazolidin-1-yl)-2-ethylphenoxy)ethyl)piperidin-1-yl)-N-(3-cyano-5-(2,6-dioxopiperidin-3-ylamino)phenyl)acetamide] | ** (25%<Y<=35%) | 0.1 to 0.5
10 | CCc1cc(N2C(=S)N(c3ccc(C#N)c(C(F)(F)F)c3)C(=O)C2(C)C)ccc1OCCC1CCN([C@@H](C)C(=O)Nc2cccc(NC3CCC(=O)NC3=O)c2)CC1 (stereo partly drawn) [Cmpd 41, (2S)-2-(4-(2-(4-(3-(4-cyano-3-(trifluoromethyl)phenyl)-5,5-dimethyl-4-oxo-2-thioxoimidazolidin-1-yl)-2-ethylphenoxy)ethyl)piperidin-1-yl)-N-(3-(2,6-dioxopiperidin-3-ylamino)phenyl)propanamide] | * (0<Y<=25%) | < 0.1
11 | CCc1cc(N2C(=S)N(c3ccc(C#N)c(C(F)(F)F)c3)C(=O)C2(C)C)ccc1OCCC1CCN([C@H](C)C(=O)Nc2cccc(NC3CCC(=O)NC3=O)c2)CC1 (stereo partly drawn) [Cmpd 42, (2R)-2-(4-(2-(4-(3-(4-cyano-3-(trifluoromethyl)phenyl)-5,5-dimethyl-4-oxo-2-thioxoimidazolidin-1-yl)-2-ethylphenoxy)ethyl)piperidin-1-yl)-N-(3-(2,6-dioxopiperidin-3-ylamino)phenyl)propanamide] | ** (25%<Y<=35%) | 0.1 to 0.5
12 | CCc1cc(N2C(=S)N(c3ccc(C#N)c(C(F)(F)F)c3)C(=O)C23CCC3)ccc1OCCC1CCN(CC(=O)Nc2cccc(NC3CCC(=O)NC3=O)c2)CC1 (stereo not drawn) [Cmpd 43, 2-(4-(2-(4-(7-(4-cyano-3-(trifluoromethyl)phenyl)-8-oxo-6-thioxo-5,7-diazaspiro[3.4]octan-5-yl)-2-ethylphenoxy)ethyl)piperidin-1-yl)-N-(3-(2,6-dioxopiperidin-3-ylamino)phenyl)acetamide] | * (0<Y<=25%) | < 0.1
13 | CC1(C)C(=O)N(c2ccc(C#N)c(C(F)(F)F)c2)C(=S)N1c1ccc(OCCC2CCN(CC(=O)Nc3cccc(NC4CCC(=O)NC4=O)c3)CC2)c(CCF)c1 (stereo not drawn) [Cmpd 48, 2-(4-(2-(4-(3-(4-cyano-3-(trifluoromethyl)phenyl)-5,5-dimethyl-4-oxo-2-thioxoimidazolidin-1-yl)-2-(2-fluoroethyl)phenoxy)ethyl)piperidin-1-yl)-N-(3-(2,6-dioxopiperidin-3-ylamino)phenyl)acetamide] | * (0<Y<=25%) | < 0.1
14 | CCc1cc(N2C(=S)N(c3ccc(C#N)c(C(F)(F)F)c3)C(=O)C2(C)C)ccc1OC1CCN(CC(=O)Nc2cc(Cl)cc(NC3CCC(=O)NC3=O)c2)CC1 (stereo not drawn) [Cmpd 49, N-(3-chloro-5-(2,6-dioxopiperidin-3-ylamino)phenyl)-2-(4-(4-(3-(4-cyano-3-(trifluoromethyl)phenyl)-5,5-dimethyl-4-oxo-2-thioxoimidazolidin-1-yl)-2-ethylphenoxy)piperidin-1-yl)acetamide] | ** (25%<Y<=35%) | 0.1 to 0.5
15 | CCc1cc(N2C(=S)N(c3ccc(C#N)c(C(F)(F)F)c3)C(=O)C2(C)C)ccc1OC1CCN(CC(=O)Nc2cccc(NC3CCC(=O)NC3=O)c2)CC1 (stereo not drawn) [Cmpd 50, 2-(4-(4-(3-(4-cyano-3-(trifluoromethyl)phenyl)-5,5-dimethyl-4-oxo-2-thioxoimidazolidin-1-yl)-2-ethylphenoxy)piperidin-1-yl)-N-(3-(2,6-dioxopiperidin-3-ylamino)phenyl)acetamide] | ** (25%<Y<=35%) | 0.1 to 0.5
